Assay results: ChEMBL document CHEMBL3297733, “Discovery and optimization of pyrrolo[1,2-a]pyrazinones leads to novel and selective inhibitors of PIM kinases” (Bioorg Med Chem, 2013)

Legend:
[1] = Oral bioavailability in BALB/c mouse at 8.2 mg/kg; type: ADME, organism-based; conditions: in vivo
[2] = Half life in BALB/c mouse at 8.2 mg/kg, iv; type: ADME, organism-based; parameters: dose 8.2 mg/kg, route intravenous; conditions: in vivo
[3] = Volume of distribution at steady state in BALB/c mouse at 8.2 mg/kg, iv; type: ADME, organism-based; parameters: dose 8.2 mg/kg, route intravenous; conditions: in vivo, read-out: Vdss
[4] = Clearance in BALB/c mouse at 8.2 mg/kg, iv; type: ADME, organism-based; parameters: dose 8.2 mg/kg, route intravenous; conditions: in vivo
Cytochrome P450 3A4 = Cytochrome P450 3A4 (Homo sapiens, UniProt P08684); experiment: Inhibition of CYP3A4 (unknown origin); type: ADME
[5] = Intrinsic clearance in dog hepatocytes; type: ADME, cell-based, Canis lupus familiaris, Hepatocyte; conditions: read-out: CLH
[6] = Intrinsic clearance in mouse hepatocytes; type: ADME, cell-based, Hepatocyte; conditions: read-out: CLH
[7] = Clearance in human hepatocytes; type: ADME, cell-based, Hepatocyte; conditions: read-out: CLH
[8] = Plasma protein binding in mouse; type: ADME; conditions: read-out: PPB (converted)
[9] = Plasma protein binding in rat; type: ADME, cell-free; conditions: read-out: PPB (converted)
[10] = target: Serine/threonine-protein kinase pim-1 (Mus musculus) (UniProt P06803); experiment: Inhibition of PIM1 in mouse BA/F3 cells assessed as phosphorylation of BAD at S112 after 24 hrs by Western blotting analysis; type: cell-based; conditions: BaF3
Sequence of Serine/threonine-protein kinase pim-1 (Mus musculus) (P06803 whole entry, looked up): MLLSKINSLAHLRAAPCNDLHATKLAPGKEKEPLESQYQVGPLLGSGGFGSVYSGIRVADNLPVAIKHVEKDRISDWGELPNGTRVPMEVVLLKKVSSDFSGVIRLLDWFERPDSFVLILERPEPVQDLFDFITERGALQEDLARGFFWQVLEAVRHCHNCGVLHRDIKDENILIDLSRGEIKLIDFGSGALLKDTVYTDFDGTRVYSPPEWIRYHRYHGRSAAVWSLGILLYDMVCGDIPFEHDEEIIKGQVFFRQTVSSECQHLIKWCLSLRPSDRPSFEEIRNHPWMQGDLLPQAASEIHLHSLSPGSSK

[11] = target: Serine/threonine-protein kinase pim-1 (Mus musculus) (UniProt P06803); experiment: Inhibition of PIM1 in mouse BA/F3 cells assessed as c-Myc degradation after 24 hrs by Western blotting analysis; type: cell-based; conditions: BaF3
[12] = Cytotoxicity against mouse BA/F3 cells after 72 hrs by CellTitre-Glo assay; type: cell-based; conditions: BaF3, 72 h
RPMI-8226 = experiment: Cytotoxicity against human RPMI8226 cells after 72 hrs by CellTitre-Glo assay; type: functional, cell-based; conditions: RPMI-8226, 72 h
[13] = Cytotoxicity against human Capan1 cells after 72 hrs by CellTitre-Glo assay; type: functional, cell-based; conditions: CAPAN-1, 72 h
[14] = Cytotoxicity against human NCI-H929 cells after 72 hrs by CellTitre-Glo assay; type: functional, cell-based; conditions: NCI-H929, 72 h
LP-1 = experiment: Cytotoxicity against human LP-1 cells after 72 hrs by CellTitre-Glo assay; type: functional, cell-based; conditions: LP-1, 72 h
[15] = Apparent permeability from apical to basolateral side in human Caco2 cells after 120 mins by LC-MS/MS analysis; conditions: Caco-2
[16] = Intrinsic clearance in human liver microsomes after 5 mins by LC-MS/MS analysis; type: ADME; conditions: read-out: CLH
[17] = target: Tyrosine-protein kinase ZAP-70 (Homo sapiens, UniProt P43403); experiment: Inhibition of ZAP70 (unknown origin)
[18] = target: Vascular endothelial growth factor receptor 2 (Homo sapiens, UniProt P35968); experiment: Inhibition of VEGFR2 (unknown origin)
[19] = target: Tyrosine-protein kinase SYK (Homo sapiens, UniProt P43405); experiment: Inhibition of Syk (unknown origin)
[20] = target: High affinity nerve growth factor receptor (Homo sapiens, UniProt P04629); experiment: Inhibition of TRKA (unknown origin)
[21] = target: Proto-oncogene tyrosine-protein kinase ROS (Homo sapiens, UniProt P08922); experiment: Inhibition of ROS1 (unknown origin)
[22] = target: Protein kinase C beta type (Homo sapiens, UniProt P05771); experiment: Inhibition of PKC-beta (unknown origin)
[23] = target: Serine/threonine-protein kinase PLK1 (Homo sapiens, UniProt P53350); experiment: Inhibition of PLK1 (unknown origin)
[24] = Inhibition of PKA-alpha (unknown origin); parameters: species or system Homo sapiens
[25] = target: Serine/threonine-protein kinase PAK 4 (Homo sapiens, UniProt O96013); experiment: Inhibition of PAK4 (unknown origin)
[26] = target: Platelet-derived growth factor receptor (Homo sapiens, UniProt P09619+P16234); experiment: Inhibition of PDGFR (unknown origin); type: protein-complex assay
[27] = target: Serine/threonine-protein kinase NIM1 (Homo sapiens, UniProt Q8IY84); experiment: Inhibition of NIM1 (unknown origin)
[28] = target: Mitogen-activated protein kinase 14 (Homo sapiens, UniProt Q16539); experiment: Inhibition of P38alpha (unknown origin)
[29] = target: Serine/threonine-protein kinase 26 (Homo sapiens, UniProt Q9P289); experiment: Inhibition of MST4 (unknown origin)
[30] = target: Serine/threonine-protein kinase Nek6 (Homo sapiens, UniProt Q9HC98); experiment: Inhibition of NEK6 (unknown origin)
Sequence of Serine/threonine-protein kinase Nek6 (Q9HC98 whole entry): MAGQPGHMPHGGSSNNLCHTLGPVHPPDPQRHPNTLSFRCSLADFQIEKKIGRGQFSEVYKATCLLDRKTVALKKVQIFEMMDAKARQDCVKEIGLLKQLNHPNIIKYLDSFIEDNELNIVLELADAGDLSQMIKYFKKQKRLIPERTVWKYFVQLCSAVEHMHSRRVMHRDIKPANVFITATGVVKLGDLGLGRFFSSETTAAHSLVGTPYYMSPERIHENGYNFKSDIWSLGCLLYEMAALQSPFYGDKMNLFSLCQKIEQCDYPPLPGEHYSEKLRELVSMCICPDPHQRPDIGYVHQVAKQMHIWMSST

[31] = target: MAP kinase-interacting serine/threonine-protein kinase 2 (Homo sapiens, UniProt Q9HBH9); experiment: Inhibition of MNK2 (unknown origin)
Sequence of MAP kinase-interacting serine/threonine-protein kinase 2 (Q9HBH9 whole entry): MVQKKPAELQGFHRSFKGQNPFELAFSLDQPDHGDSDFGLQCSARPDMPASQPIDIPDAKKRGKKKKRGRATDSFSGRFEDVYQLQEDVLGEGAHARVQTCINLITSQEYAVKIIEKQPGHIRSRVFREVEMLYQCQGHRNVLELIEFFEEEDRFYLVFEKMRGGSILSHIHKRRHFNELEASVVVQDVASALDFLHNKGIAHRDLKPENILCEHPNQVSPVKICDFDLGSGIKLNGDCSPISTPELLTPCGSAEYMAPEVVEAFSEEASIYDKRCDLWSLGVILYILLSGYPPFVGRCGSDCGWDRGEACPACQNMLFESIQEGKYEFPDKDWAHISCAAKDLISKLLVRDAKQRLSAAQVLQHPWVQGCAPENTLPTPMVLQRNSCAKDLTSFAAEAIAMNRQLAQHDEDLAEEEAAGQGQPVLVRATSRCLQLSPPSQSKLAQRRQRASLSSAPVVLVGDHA

[32] = target: MAP kinase-activated protein kinase 2 (Homo sapiens, UniProt P49137); experiment: Inhibition of MAPKAPK2 (unknown origin)
[33] = target: Maternal embryonic leucine zipper kinase (Homo sapiens, UniProt Q14680); experiment: Inhibition of MELK (unknown origin)
Sequence of Maternal embryonic leucine zipper kinase (Q14680 whole entry): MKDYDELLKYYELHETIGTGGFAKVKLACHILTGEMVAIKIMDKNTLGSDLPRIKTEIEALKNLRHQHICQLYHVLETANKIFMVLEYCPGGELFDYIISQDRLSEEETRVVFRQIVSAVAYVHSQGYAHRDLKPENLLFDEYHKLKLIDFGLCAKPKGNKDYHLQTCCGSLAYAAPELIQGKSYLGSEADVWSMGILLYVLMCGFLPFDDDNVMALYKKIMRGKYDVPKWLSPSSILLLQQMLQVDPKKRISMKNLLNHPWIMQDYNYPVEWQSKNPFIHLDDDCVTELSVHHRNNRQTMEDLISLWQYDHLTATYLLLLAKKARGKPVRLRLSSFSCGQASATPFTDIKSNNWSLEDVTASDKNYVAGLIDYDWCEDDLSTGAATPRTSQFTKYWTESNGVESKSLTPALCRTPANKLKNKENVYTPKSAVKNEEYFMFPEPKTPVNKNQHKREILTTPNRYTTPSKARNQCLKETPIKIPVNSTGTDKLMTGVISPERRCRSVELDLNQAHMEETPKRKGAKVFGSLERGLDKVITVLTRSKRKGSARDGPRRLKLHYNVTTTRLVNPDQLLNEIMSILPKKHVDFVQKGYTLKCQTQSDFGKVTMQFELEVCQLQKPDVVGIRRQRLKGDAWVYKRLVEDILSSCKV

[34] = target: Tyrosine-protein kinase Lck (Homo sapiens, UniProt P06239); experiment: Inhibition of LCK (unknown origin)
[35] = target: Tyrosine-protein kinase JAK3 (Homo sapiens, UniProt P52333); experiment: Inhibition of JAK3 (unknown origin)
Insulin receptor = Insulin receptor (Homo sapiens, UniProt P06213); experiment: Inhibition of IR (unknown origin)
[36] = target: Tyrosine-protein kinase JAK2 (Homo sapiens, UniProt O60674); experiment: Inhibition of JAK2 (unknown origin)
[37] = target: Inhibitor of nuclear factor kappa-B kinase subunit beta (Homo sapiens, UniProt O14920); experiment: Inhibition of IKK2 (unknown origin)
[38] = target: Serine/threonine-protein kinase haspin (Homo sapiens, UniProt Q8TF76); experiment: Inhibition of haspin (unknown origin)
Sequence of Serine/threonine-protein kinase haspin (Q8TF76 whole entry): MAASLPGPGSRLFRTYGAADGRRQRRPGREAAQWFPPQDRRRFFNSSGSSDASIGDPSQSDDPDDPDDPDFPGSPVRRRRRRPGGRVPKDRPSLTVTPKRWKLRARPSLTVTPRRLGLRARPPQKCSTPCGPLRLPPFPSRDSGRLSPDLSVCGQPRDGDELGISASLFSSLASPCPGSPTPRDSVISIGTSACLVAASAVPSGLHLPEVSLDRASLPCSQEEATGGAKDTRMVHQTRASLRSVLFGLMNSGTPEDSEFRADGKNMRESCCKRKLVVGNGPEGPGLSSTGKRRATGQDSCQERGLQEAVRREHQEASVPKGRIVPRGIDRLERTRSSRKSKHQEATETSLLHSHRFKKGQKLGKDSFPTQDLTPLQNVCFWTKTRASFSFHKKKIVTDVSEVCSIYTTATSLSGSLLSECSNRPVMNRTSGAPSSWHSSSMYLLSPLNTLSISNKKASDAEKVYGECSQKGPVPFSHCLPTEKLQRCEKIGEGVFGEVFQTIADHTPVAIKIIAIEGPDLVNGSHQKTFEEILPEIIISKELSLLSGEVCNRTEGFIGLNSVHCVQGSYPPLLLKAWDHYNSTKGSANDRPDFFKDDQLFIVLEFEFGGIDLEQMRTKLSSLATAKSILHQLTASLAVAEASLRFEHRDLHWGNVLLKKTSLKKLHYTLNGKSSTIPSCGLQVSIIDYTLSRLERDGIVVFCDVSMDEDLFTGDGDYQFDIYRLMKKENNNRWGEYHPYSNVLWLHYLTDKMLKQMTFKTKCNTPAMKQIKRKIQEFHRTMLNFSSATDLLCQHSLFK

[39] = target: Fibroblast growth factor receptor 1 (Homo sapiens, UniProt P11362); experiment: Inhibition of FGFR1 (unknown origin)
Ephrin type-A receptor 2 = Ephrin type-A receptor 2 (Homo sapiens, UniProt P29317); experiment: Inhibition of EphA2 (unknown origin)
Sequence of Ephrin type-A receptor 2 (P29317 whole entry): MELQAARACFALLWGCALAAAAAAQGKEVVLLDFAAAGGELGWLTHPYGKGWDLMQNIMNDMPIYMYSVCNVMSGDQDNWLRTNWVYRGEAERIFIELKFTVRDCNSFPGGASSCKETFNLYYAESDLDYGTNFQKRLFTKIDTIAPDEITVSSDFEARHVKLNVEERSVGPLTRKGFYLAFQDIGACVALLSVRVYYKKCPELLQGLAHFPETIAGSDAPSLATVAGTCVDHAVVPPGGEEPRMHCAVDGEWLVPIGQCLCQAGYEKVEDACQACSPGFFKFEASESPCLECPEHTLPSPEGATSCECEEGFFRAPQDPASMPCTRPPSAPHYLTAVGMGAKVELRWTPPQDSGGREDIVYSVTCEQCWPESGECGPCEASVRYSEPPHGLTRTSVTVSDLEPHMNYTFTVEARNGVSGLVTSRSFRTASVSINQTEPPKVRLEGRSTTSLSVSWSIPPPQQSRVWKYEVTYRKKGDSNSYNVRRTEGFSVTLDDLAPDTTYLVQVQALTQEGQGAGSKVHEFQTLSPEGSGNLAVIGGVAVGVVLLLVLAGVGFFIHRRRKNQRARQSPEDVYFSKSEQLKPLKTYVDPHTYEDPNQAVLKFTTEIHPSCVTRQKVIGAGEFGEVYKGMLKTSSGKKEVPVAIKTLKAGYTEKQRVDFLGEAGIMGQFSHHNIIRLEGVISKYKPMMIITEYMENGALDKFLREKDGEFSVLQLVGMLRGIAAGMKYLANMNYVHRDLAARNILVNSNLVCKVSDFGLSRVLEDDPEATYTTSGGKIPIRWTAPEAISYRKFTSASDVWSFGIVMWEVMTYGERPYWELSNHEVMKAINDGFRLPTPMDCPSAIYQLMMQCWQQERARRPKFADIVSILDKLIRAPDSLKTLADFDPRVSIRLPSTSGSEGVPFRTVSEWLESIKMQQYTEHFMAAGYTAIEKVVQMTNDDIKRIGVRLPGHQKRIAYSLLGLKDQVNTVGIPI

Focal adhesion kinase 1 = Focal adhesion kinase 1 (Homo sapiens, UniProt Q05397); experiment: Inhibition of FAK (unknown origin)
[40] = target: Mitogen-activated protein kinase 1 (Homo sapiens, UniProt P28482); experiment: Inhibition of ERK2 (unknown origin)
Casein kinase II = Casein kinase II (Homo sapiens, UniProt P19784+P67870+P68400); experiment: Inhibition of CK2 (unknown origin); type: protein-complex assay
[41] = target: Eukaryotic elongation factor 2 kinase (Homo sapiens, UniProt O00418); experiment: Inhibition of EEF2K (unknown origin)
[42] = Inhibition of CDK2/CYCA (unknown origin); parameters: species or system Homo sapiens
[43] = target: CDC7/DBF4 (Cell division cycle 7-related protein kinase/Activator of S phase kinase) (Homo sapiens, UniProt O00311); experiment: Inhibition of CDC7/DBF4 (unknown origin); type: protein-complex assay
Aurora kinase B = Aurora kinase B (Homo sapiens, UniProt Q96GD4); experiment: Inhibition of aurora kinase 2 (unknown origin)
Sequence of Aurora kinase B (Q96GD4 whole entry): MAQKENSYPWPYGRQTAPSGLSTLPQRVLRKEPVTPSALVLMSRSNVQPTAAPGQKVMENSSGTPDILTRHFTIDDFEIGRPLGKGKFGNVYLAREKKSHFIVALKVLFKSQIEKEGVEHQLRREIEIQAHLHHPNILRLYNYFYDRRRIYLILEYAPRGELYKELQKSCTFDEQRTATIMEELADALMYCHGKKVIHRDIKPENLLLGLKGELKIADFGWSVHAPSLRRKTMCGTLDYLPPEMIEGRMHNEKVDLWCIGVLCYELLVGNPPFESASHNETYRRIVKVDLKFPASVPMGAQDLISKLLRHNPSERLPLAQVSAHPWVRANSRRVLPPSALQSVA

[44] = target: Mitotic checkpoint serine/threonine-protein kinase BUB1 (Homo sapiens, UniProt O43683); experiment: Inhibition of BUB1 (unknown origin)
[45] = target: Tyrosine-protein kinase ABL1 (Homo sapiens, UniProt P00519); experiment: Inhibition of Bcr-ABL (unknown origin)
Sequence of Tyrosine-protein kinase ABL1 (P00519 whole entry, looked up): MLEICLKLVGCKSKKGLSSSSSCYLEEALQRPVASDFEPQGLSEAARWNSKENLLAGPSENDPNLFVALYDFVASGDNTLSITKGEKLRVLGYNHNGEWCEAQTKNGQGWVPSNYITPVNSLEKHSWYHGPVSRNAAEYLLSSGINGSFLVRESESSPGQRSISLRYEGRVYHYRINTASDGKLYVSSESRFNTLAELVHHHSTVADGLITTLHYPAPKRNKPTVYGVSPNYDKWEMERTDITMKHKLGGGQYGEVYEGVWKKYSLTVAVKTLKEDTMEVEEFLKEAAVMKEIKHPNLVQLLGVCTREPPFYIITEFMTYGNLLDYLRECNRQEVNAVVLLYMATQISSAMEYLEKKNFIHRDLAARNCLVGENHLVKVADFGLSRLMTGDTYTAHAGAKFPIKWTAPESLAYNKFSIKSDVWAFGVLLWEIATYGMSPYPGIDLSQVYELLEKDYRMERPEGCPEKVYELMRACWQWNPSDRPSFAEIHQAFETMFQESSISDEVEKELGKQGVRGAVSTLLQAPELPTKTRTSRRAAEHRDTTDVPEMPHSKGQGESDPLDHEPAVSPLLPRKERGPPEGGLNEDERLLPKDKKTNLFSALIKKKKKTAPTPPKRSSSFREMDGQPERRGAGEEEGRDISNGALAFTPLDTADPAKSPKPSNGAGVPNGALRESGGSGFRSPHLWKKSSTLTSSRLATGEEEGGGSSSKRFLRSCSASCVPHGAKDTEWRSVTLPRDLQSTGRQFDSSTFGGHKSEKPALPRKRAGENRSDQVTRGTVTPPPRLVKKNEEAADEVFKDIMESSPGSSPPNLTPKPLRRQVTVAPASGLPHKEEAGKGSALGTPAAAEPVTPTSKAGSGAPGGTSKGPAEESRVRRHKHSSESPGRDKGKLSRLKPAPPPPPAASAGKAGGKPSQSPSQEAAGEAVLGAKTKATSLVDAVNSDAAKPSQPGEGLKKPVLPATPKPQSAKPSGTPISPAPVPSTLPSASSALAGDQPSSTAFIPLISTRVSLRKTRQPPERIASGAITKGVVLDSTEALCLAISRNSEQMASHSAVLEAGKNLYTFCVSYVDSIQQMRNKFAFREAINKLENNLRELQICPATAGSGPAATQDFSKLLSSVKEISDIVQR

[46] = Half life in BALB/c mouse at 8.2 mg/kg, po; type: ADME, organism-based; parameters: dose 8.2 mg/kg, route oral; conditions: in vivo

SMILES: CN1CCN(C[C@@H](NC(=O)C[C@H]2CNC(=O)c3cc(-c4cccc(Cl)c4)cn32)C2CCCCC2)CC1
- bioavailability [1]: 0.65%
- half-life [2]: 13.6 h
- Vd [3]: 11.3 L/kg
- clearance [4]: 28 mL/min/kg
- IC50 (Cytochrome P450 3A4): > 10 µM
- CLint scaled [5]: 11 mL/min/kg
- CLint scaled [6]: 63 mL/min/kg
- CLint scaled [7]: 5.9 mL/min/kg
- fraction unbound [8]: 0.02
- fraction unbound [9]: 0.036
- inhibition [10]: Dose-dependent effect
- inhibition [11]: Dose-dependent effect
- IC50 [12]: > 10 µM
- IC50 (RPMI-8226): 6.66 µM
- IC50 [13]: 3.7 µM
- IC50 [14]: 5.93 µM
- IC50 (LP-1): 1.93 µM
- Papp A→B at 2 h [15]: 8.4 ×10⁻⁶ cm/s
- CLint scaled [16]: 5.9 mL/min/kg
- IC50 [17]: > 10 µM
- IC50 [18]: > 10 µM
- IC50 [19]: > 10 µM
- IC50 [20]: > 10 µM
- IC50 [21]: > 10 µM
- IC50 [22]: > 10 µM
- IC50 [23]: > 10 µM
- IC50 [24]: > 10 µM
- IC50 [25]: > 10 µM
- IC50 [26]: > 10 µM
- IC50 [27]: > 10 µM
- IC50 [28]: > 10 µM
- IC50 [29]: > 10 µM
- IC50 [30]: > 10 µM
- IC50 [31]: > 10 µM
- IC50 [32]: > 10 µM
- IC50 [33]: > 10 µM
- IC50 [34]: > 10 µM
- IC50 [35]: > 10 µM
- IC50 (Insulin receptor): > 10 µM
- IC50 [36]: > 10 µM
- IC50 [37]: > 10 µM
- IC50 [38]: > 10 µM
- IC50 [39]: > 10 µM
- IC50 (Ephrin type-A receptor 2): > 10 µM
- IC50 (Focal adhesion kinase 1): > 10 µM
- IC50 [40]: > 10 µM
- IC50 (Casein kinase II): > 10 µM
- IC50 [41]: > 10 µM
- IC50 [42]: > 10 µM
- IC50 [43]: > 10 µM
- IC50 (Aurora kinase B): > 10 µM
- IC50 [44]: > 10 µM
- IC50 [45]: > 10 µM
- half-life [46]: 1.25 h
